The assay has as its target JMJD2C (Homo sapiens (Human), UniProt Q9H3R0). Put plainly: In vitro enzyme inhibition assay (JMJD2C TR-FRET). The settings on record: 0.3 nM JMJD2C, 300 nM H3K9me3-biotin peptide, 2 μM alpha-ketoglutaric acid. The assay is classed as biochemical. The procedure: This assay determines the ability of a test compound to inhibit JMJD2C demethylase activity. Baculovirus expressed JMJD2C (GenBank Accession #BC143571, AA 2-372) was purchased from BPS Bioscience (Cat#50105).
The ability of test compounds to inhibit the activity of JMJD2C was determined in 384-well plate-format under the following reaction conditions: 0.3 nM JMJD2C, 300 nM H3K9me3-biotin labeled peptide (Anaspec cat #64360), 2 μM alpha-ketoglutaric acid in assay buffer of 50 mM HEPES, pH 7.3, 0.005% Brij35, 0.5 mM TCEP, 0.2 mg/ml BSA, 50 μM sodium L-ascorbate, and 2 μM ammonium iron(II) sulfate. Reaction product was determined quantitatively by TR-FRET after the addition of detection reagent Phycolink Streptavidin-allophycocyanin (Prozyme) and Europium-anti-di-methylated histone H3 lysine 9 (H3K9me2) antibody (PerkinElmer) in the presence of 5 mM EDTA in LANCE detection buffer (PerkinElmer) at a final concentration of 50 nM and 1 nM, respectively.
The assay reaction was initiated by the following: 2 μl of the mixture of 900 nM H3K9me3-biotin labeled peptide and 6 μM alpha-ketoglutaric acid with 2 μl of 11-point serial diluted inhibitor in 3% DMSO were added to each well of the plate, followed by the addition of 2 μl of 0.9 nM JMJD2C to initiate the reaction. The reaction mixture was incubated at room temperature for 30 min, and terminated by the addition of 6 μl of 5 mM EDTA in LANCE detection buffer containing 100 nM Phycolink Streptavidin-allophycocyanin and 2 nM Europium-anti-H3K9me2 antibody. Plates were read by EnVisionMultilabel Reader in TR-FRET mode (excitation at 320 nm, emission at 615 nm and 665 nm) after 1 hr incubation at room temperature. A ratio was calculated (665/615) for each well and fitted to determine inhibition constant (IC50).
The ability of the compounds disclosed herein to inhibit demethylase activity was quantified and the respective IC50 value was determined. Table 3 provides the IC50 values of various compounds disclosed herein.
Background: Time-resolved FRET reads energy transfer from a long-lived donor to a nearby acceptor.
Sequence of JMJD2C (Q9H3R0 2-372): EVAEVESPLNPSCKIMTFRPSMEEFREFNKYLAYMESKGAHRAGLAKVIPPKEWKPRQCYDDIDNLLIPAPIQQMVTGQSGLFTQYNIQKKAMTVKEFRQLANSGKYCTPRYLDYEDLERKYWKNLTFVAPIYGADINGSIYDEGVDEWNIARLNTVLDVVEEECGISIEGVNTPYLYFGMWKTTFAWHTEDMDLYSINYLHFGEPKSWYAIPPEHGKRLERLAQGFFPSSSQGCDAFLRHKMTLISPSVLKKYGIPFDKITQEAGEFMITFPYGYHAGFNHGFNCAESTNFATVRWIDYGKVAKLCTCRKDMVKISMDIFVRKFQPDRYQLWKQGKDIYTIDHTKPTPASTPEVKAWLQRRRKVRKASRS
The IC50 is the concentration needed to halve the response being measured. Higher therefore signals lower potency. With `CN(c1ccc(Oc2nc(O)c3ccncc3n2)cc1)c1ccc2c(c1)OCC2(C)C` [Example 116], the IC50 fell in the range of 100 to 1000 nM.

Turning to `CC(C)c1ccc(N(c2ccc(Oc3nc(O)c4ccncc4n3)cc2)C(C)C)cc1` [Example 122], the half-maximal inhibitory concentration (IC50) is 1000 to 10000 nM.

`CC(C)CN(c1ccc(Oc2nc(O)c3ccncc3n2)cc1)c1ccc(C(C)C)cc1` [Example 123, 2-(4-(isobutyl(4-isopropylphenyl)amino)phenoxy)pyrido[3,4-d]pyrimidin-4-ol] had a half-inhibitory concentration (IC50) of 1000 to 10000 nM.

`CN1CC=C(c2cccc(N(C)c3ccc(Oc4nc(O)c5ccncc5n4)cc3)c2)CC1` [Example 139, 2-(4-(methyl(3-(1-methyl-1,2,3,6-tetrahydropyridin-4-yl)phenyl)amino)phenoxy)pyrido[3,4-d]pyrimidin-4-ol] came in with an IC50 of at most 100 nM.

`CN1CCN(c2cccc(N(CC3CC3)c3ccc(Oc4nc(O)c5ccncc5n4)cc3)c2)CC1` [Example 142, 2-(4-((cyclopropylmethyl)(3-(4-methylpiperazin-1-yl)phenyl)amino)phenoxy)pyrido[3,4-d]pyrimidin-4-ol] showed a concentration for half-maximal inhibition (IC50) of at most 100 nM.

Consider `CC(C)c1ccc(N(C)c2ccc(Oc3nc(O)c4ccncc4n3)cc2C(F)(F)F)cc1` [Example 143, 2-(4-((4-isopropylphenyl)(methyl)amino)-3-(trifluoromethyl)phenoxy)pyrido[3,4-d]pyrimidin-4-ol], for which the IC50 is 1000 to 10000 nM.

Compound `CCc1ccc(N(C)c2ccc(Oc3nc(O)c4ccncc4n3)cc2C)cc1` [Example 144, 2-(4-((4-ethylphenyl)(methyl)amino)-3-methylphenoxy)pyrido[3,4-d]pyrimidin-4-ol] returned an IC50 of at most 100 nM.

Consider `COc1ccc(N2CCN(C)CC2)cc1N(C)c1ccc(Oc2nc(O)c3ccncc3n2)cc1` [Example 145, 2-(4-((2-methoxy-5-(4-methylpiperazin-1-yl)phenyl)(methyl)amino)phenoxy)pyrido[3,4-d]pyrimidin-4-ol], for which the IC50 is at most 100 nM.

As for `CCOc1ccc(N2CCN(C)CC2)cc1N(C)c1ccc(Oc2nc(O)c3ccncc3n2)cc1` [Example 146, 2-(4-((2-ethoxy-5-(4-methylpiperazin-1-yl)phenyl)(methyl)amino)phenoxy)pyrido[3,4-d]pyrimidin-4-ol], the IC50 is at most 100 nM.

`Cc1ccc(N2CCN(C)CC2)cc1N(C)c1ccc(Oc2nc(O)c3ccncc3n2)cc1` [Example 147, 2-(4-(methyl(2-methyl-5-(4-methylpiperazin-1-yl)phenyl)amino)phenoxy)pyrido[3,4-d]pyrimidin-4-ol] registered an IC50 of at most 100 nM.

`Cc1cc(Oc2nc(O)c3ccncc3n2)ccc1N(C)c1ccc(C(C)(C)C)cc1` [Example 148, 2-(4-((4-(tert-butyl)phenyl)(methyl)amino)-3-methylphenoxy)pyrido[3,4-d]pyrimidin-4-ol] showed a half-maximal inhibitory concentration (IC50) of 100 to 1000 nM.

`CCCc1ccc(N(C)c2ccc(Oc3nc(O)c4ccncc4n3)cc2C)cc1` [Example 149, 2-(3-methyl-4-(methyl(4-propylphenyl)amino)phenoxy)pyrido[3,4-d]pyrimidin-4-ol] showed a half-maximal inhibitory concentration (IC50) of 100 to 1000 nM.
